Assay results as given in patent publication US9643980B2, “Benzoxazepin oxazolidinone compounds and methods of use” (Genentech, Inc., priority 2015, dated 2017).
Like-named read-outs stand apart in the source and are kept apart here.

What was measured:
[1] = molecular target: PI3Kα (Homo sapiens, UniProt P42336); assay: PI3K binding assay (lipid kinase reaction, ADP-Glo), PI3K alpha; type: biochemical; details: for Ki: first value of cell (ADP-Glo, Example 901), read-out: PI3Kα Ki
Method: (§1) Reactions are carried out using the following conditions for each PI3K isoform as in Table 5.
(§2) All reactions are carried out at room temperature. […] The reaction is started by the addition of 2 μL ATP/MgCl2. The kinase reaction buffer contains 50 mM HEPES, 50 mM NaCl 3 mM MgCl2, 0.01% BSA, 1% DMSO, and enzyme and substrate concentrations as indicated in the above table. The reaction is stopped by the addition of 10 μL ADP-Glo reagent. Plates are read in a Perkin Elmer Envision system using luminescence mode. 10 point dose response curves are generated for each test compound. Ki values for each compound are determined using the Morrison Equation.

[2] = test system: P-PRAS40 SW48(E545K); assay: Inhibition of P-PRAS40 in SW48 isogenic cells, PI3Kα mutant E545K; type: cell-based; details: for EC50: Homo sapiens, SW48, 24 hours of compound treatment, read-out: P-PRAS40 SW48(E545K) EC50; for Fold Selectivity for SW48(E545K) vs. SW48(parental): EC50 potency ratio, p value (Student t-Test) given
Method: (§3) All statistics were performed using KaleidaGraph Software (version 4.1.3). A Student t-Test was performed using unpaired data with equal variance to compare activity against mutant cells and wild-type cells. P<0.05 is considered to be significant.
(§4) The following assays are intended for determining the cellular potency and mutant selectivity of small molecule PI3Kα inhibitors. […] Mutant selectivity of PI3Kα inhibitors is determined by EC50 potency ratios in the WT vs. E545K cell lines and WT vs. H1047R cell lines.
(§5) The three cell lines (WT, E545K, and H1047R) are plated and assayed in parallel. The following day, test compounds are serially diluted in dimethyl sulfoxide (DMSO) and added to cells (final DMSO concentration 0.5%). […] Cell lysates are added to assay plates pre-coated with antibodies against phosphorylated PRAS40. Phosphorylated PRAS40 in samples are allowed to bind to the capture antibodies overnight at 4° C. The detection antibody (anti-total PRAS40, labeled with an electrochemiluminescent SULFO-TAG) is added to the bound lysate and incubated for 1 hour at room temperature. The MSD Read Buffer is added such that when a voltage is applied to the plate electrodes, the labels bound to the electrode surface emit light. The MSD Sector Instrument measures the intensity of the light, and quantitatively measures the amount of phosphor-PRAS40 in the sample. Percent inhibition of PRAS40 phosphorylation by varying concentrations of test compounds is calculated relative to untreated controls. EC50 values are calculated using the 4 parameter logistic nonlinear regression dose-response model.

[3] = test system: MCF7 cells (PI3Kα mutant E545K); assay: In vitro cell viability assay (Cell Titer-Glo), MCF7
Method: (§6) Cells were seeded (1,500 per well) in 384-well plates for 16 h. On day 2, nine serial 1:3 compound dilutions were made in DMSO in a 96-well plate. The compounds were then further diluted into growth media using a Rapidplate robot (Zymark Corp.). The diluted compounds were then added to quadruplicate wells in the 384-well cell plates and incubated at 37° C. and 5% CO2. After 4 d, relative numbers of viable cells were measured by luminescence using Cell Titer-Glo (Promega) according to the manufacturer's instructions and read on a Wallac Multilabel Reader (Perkin-Elmer). EC50 values were calculated using Prism 6.0 software (GraphPad).

[4] = test system: KPL4 cells (PI3Kα mutant H1047R); assay: In vitro cell viability assay (Cell Titer-Glo), KPL4
Method: as §6

[5] = test system: KPL4 breast cancer cell line (PI3Kα mutant H1047R) tumors; details: KPL4 xenograft in SCID mice, daily PO (oral) dosing; for Tolerability / treatment-related body weight loss: all doses; for Inhibition of KPL4 tumor growth in vivo: FIGS. 2A and 2B
Method: (70-72° F.) and 40-60% humidity.
Tumor weight may be estimated with the assumption that 1 mg is equivalent to 1 mm^3 of tumor volume.

[6] = test system: P-PRAS40 SW48(parental); assay: Inhibition of P-PRAS40 in SW48 isogenic cells, PI3Kα wild-type (parental); details: Homo sapiens, SW48, 24 h
Method: The three cell lines (WT, E545K, and H1047R) are plated and assayed in parallel. The following day, test compounds are serially diluted in dimethyl sulfoxide (DMSO) and added to cells (final DMSO concentration 0.5%). Cells are then incubated for 24 hours at 37° C. and 5% CO2. […] Cell lysates are added to assay plates pre-coated with antibodies against phosphorylated PRAS40. Phosphorylated PRAS40 in samples are allowed to bind to the capture antibodies overnight at 4° C. The detection antibody (anti-total PRAS40, labeled with an electrochemiluminescent SULFO-TAG) is added to the bound lysate and incubated for 1 hour at room temperature. The MSD Read Buffer is added such that when a voltage is applied to the plate electrodes, the labels bound to the electrode surface emit light. The MSD Sector Instrument measures the intensity of the light, and quantitatively measures the amount of phosphor-PRAS40 in the sample. Percent inhibition of PRAS40 phosphorylation by varying concentrations of test compounds is calculated relative to untreated controls. EC50 values are calculated using the 4 parameter logistic nonlinear regression dose-response model.

[7] = molecular target: T1, PI3Kβ (Homo sapiens, UniProt P42338); assay: PI3K binding assay (lipid kinase reaction, ADP-Glo), PI3K beta; type: biochemical; details: Table 2A; first value of cell (ADP-Glo, Example 901)
Method: as §1, §2

[8] = test system: HCC1954 cells (PI3Kα mutant H1047R); assay: In vitro cell viability assay (Cell Titer-Glo), HCC1954
Method: as §6

[9] = test system: P-PRAS40 SW48(H1047R); assay: Inhibition of P-PRAS40 in SW48 isogenic cells, PI3Kα mutant H1047R; type: cell-based; details: for EC50: Homo sapiens, SW48, 24 hours of compound treatment, read-out: P-PRAS40 SW48(H1047R) EC50; for Fold Selectivity for SW48(H1047R) vs. SW48(parental): EC50 potency ratio, p value (Student t-Test) given
Method: as §3, §4, §5

[10] = molecular target: T2, PI3Kγ (Homo sapiens, UniProt P48736); assay: PI3K binding assay (lipid kinase reaction, ADP-Glo), PI3K gamma; type: biochemical; details: Table 2A; first value of cell (ADP-Glo, Example 901)
Method: as §1, §2

[11] = molecular target: PI3Kδ (Homo sapiens, UniProt O00329); assay: PI3K binding assay (lipid kinase reaction, ADP-Glo), PI3K delta; type: biochemical; details: Table 2A; first value of cell (ADP-Glo, Example 901)
Method: as §1, §2

[12] = test system: locally advanced or metastatic solid tumors; details: phase Ia, single agent; all responses in patients with PIK3CA mutant tumors (Juric D. et al. AACR 2013); cited from earlier work
[13] = molecular target: T2, PI3Kγ; assay: Fluorescence polarization (FP) Ki, methods of Example 901 of U.S. Pat. No. 8,242,104, PI3K gamma; details: read-out: PI3Kγ FP Ki; Table 2A; second value of cell after slash (FP)
[14] = molecular target: T1, PI3Kβ; assay: Fluorescence polarization (FP) Ki, methods of Example 901 of U.S. Pat. No. 8,242,104, PI3K beta; details: read-out: PI3Kβ FP Ki; Table 2A; second value of cell after slash (FP)
[15] = Table 2A, selectivity ratio (fold)
[16] = Homo sapiens, MCF7, 96 h, read-out: MCF7 antiproliferative EC50 (μM)
[17] = KPL4, 96 h, read-out: KPL4 antiproliferative EC50 (μM)
[18] = read-out: P-PRAS40 SW48(parental) EC50 (nM)
[19] = Homo sapiens, HCC1954, 96 h, read-out: HCC1954 antiproliferative EC50 (μM)
[20] = read-out: MCF7 antiproliferative EC50, 4 d incubation, Cell Titer-Glo
[21] = read-out: KPL4 antiproliferative EC50, 4 d incubation, Cell Titer-Glo
[22] = read-out: HCC1954 antiproliferative EC50, 4 d incubation, Cell Titer-Glo

T2 sequence (P48736 whole entry): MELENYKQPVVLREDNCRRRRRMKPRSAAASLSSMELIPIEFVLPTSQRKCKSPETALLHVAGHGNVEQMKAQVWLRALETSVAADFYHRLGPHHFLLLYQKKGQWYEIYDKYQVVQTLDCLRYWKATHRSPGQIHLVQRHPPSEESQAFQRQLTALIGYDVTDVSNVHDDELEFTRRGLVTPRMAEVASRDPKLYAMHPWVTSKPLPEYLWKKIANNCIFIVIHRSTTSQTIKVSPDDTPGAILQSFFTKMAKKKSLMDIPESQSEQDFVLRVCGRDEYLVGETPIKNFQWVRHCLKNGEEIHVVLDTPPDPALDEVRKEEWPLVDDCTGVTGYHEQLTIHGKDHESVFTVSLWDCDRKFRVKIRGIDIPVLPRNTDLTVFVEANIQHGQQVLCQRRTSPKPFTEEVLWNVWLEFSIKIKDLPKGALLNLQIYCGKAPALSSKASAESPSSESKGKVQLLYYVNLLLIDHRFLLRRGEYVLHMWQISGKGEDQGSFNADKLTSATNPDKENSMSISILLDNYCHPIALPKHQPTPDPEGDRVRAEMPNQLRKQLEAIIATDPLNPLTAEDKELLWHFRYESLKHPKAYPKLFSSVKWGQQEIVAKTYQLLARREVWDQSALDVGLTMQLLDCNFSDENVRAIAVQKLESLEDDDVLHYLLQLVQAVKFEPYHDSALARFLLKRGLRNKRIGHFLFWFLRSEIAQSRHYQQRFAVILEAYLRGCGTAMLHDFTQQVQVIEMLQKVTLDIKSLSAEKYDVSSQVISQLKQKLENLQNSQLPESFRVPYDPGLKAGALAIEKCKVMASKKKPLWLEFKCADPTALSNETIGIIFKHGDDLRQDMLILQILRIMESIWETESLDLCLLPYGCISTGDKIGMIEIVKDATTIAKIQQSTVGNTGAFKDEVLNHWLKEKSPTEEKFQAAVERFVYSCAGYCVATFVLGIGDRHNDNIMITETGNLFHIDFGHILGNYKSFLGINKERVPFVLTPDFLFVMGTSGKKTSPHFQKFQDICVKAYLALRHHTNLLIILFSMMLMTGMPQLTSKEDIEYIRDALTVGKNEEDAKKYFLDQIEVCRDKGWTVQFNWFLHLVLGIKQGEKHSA
PI3Kα, sequence (P42336 whole entry, canonical isoform): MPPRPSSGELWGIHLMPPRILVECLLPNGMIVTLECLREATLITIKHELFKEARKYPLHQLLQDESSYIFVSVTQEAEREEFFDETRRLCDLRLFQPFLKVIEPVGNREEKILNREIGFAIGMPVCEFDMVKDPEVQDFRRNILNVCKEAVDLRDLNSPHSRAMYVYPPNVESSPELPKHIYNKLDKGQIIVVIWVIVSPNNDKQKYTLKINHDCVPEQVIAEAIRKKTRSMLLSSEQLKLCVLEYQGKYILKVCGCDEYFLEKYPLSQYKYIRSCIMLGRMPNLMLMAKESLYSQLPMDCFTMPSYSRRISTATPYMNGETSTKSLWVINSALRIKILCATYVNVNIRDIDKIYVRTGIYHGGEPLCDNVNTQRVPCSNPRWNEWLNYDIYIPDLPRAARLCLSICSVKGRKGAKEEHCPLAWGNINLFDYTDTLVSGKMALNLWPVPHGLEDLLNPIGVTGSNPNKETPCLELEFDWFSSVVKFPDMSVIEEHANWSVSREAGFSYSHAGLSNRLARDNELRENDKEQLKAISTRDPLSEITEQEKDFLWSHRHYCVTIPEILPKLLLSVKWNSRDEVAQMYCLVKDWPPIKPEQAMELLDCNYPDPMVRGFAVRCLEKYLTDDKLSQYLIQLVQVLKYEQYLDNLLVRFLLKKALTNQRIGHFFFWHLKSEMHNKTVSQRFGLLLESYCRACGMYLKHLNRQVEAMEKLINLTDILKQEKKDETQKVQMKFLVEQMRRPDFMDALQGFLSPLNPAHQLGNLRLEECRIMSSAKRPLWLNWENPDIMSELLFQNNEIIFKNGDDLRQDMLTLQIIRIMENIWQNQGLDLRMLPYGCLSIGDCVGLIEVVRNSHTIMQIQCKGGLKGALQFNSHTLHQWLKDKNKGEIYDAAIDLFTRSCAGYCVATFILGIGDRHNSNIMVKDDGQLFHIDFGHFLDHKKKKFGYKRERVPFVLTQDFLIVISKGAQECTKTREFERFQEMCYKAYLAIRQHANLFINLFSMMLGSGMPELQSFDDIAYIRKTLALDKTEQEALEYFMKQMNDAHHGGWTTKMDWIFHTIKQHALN
PI3Kα, sequence (P27986 whole entry partner, canonical isoform): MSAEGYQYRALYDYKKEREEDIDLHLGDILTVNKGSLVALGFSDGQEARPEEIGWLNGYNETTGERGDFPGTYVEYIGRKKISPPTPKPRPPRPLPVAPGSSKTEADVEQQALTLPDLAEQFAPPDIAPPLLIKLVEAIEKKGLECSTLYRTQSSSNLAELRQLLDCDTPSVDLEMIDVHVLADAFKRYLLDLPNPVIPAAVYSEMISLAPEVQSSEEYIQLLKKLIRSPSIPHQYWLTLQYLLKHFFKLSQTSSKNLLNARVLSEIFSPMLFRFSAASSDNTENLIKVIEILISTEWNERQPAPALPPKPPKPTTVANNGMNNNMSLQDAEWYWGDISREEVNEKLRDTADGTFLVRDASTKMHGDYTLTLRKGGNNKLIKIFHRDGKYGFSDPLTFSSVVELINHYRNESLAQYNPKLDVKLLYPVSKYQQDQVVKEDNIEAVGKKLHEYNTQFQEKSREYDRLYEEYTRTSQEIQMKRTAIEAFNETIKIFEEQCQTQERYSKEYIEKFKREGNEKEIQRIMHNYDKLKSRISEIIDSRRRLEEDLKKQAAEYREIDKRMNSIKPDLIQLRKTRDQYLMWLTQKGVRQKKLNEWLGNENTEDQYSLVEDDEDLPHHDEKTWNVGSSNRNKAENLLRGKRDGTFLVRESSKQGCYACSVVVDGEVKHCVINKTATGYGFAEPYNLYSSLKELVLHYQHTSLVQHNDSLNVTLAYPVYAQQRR
T1 sequence (P42338 whole entry): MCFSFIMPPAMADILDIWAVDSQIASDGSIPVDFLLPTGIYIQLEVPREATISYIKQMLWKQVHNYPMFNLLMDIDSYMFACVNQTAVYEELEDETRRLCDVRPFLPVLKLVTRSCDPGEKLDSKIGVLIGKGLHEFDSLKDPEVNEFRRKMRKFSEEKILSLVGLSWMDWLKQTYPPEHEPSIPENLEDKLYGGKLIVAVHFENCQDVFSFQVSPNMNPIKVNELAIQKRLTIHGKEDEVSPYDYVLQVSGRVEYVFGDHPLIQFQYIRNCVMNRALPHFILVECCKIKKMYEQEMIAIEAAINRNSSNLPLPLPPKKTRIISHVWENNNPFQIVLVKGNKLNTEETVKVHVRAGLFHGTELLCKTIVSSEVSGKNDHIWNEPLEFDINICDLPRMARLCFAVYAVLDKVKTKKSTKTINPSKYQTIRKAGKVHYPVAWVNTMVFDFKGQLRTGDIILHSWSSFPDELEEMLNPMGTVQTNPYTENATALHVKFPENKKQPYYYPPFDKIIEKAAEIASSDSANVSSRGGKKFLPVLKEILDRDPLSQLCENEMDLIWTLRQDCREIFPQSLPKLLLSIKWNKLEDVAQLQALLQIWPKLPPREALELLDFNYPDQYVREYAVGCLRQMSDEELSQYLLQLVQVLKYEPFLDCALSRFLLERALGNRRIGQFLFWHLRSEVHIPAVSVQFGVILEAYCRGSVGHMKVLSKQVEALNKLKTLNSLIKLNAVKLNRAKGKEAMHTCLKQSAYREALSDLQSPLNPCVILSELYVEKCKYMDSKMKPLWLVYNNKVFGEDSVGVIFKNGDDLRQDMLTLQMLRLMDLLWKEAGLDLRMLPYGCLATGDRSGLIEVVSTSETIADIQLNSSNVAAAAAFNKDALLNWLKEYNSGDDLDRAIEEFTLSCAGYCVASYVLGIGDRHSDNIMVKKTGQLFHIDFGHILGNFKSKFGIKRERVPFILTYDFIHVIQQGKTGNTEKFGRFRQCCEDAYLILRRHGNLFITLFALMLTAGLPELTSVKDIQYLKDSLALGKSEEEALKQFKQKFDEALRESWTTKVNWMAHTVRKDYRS
T1 sequence (P27986 whole entry partner): as the sequence (P27986 whole entry partner, canonical isoform) above
PI3Kδ, sequence (O00329 whole entry): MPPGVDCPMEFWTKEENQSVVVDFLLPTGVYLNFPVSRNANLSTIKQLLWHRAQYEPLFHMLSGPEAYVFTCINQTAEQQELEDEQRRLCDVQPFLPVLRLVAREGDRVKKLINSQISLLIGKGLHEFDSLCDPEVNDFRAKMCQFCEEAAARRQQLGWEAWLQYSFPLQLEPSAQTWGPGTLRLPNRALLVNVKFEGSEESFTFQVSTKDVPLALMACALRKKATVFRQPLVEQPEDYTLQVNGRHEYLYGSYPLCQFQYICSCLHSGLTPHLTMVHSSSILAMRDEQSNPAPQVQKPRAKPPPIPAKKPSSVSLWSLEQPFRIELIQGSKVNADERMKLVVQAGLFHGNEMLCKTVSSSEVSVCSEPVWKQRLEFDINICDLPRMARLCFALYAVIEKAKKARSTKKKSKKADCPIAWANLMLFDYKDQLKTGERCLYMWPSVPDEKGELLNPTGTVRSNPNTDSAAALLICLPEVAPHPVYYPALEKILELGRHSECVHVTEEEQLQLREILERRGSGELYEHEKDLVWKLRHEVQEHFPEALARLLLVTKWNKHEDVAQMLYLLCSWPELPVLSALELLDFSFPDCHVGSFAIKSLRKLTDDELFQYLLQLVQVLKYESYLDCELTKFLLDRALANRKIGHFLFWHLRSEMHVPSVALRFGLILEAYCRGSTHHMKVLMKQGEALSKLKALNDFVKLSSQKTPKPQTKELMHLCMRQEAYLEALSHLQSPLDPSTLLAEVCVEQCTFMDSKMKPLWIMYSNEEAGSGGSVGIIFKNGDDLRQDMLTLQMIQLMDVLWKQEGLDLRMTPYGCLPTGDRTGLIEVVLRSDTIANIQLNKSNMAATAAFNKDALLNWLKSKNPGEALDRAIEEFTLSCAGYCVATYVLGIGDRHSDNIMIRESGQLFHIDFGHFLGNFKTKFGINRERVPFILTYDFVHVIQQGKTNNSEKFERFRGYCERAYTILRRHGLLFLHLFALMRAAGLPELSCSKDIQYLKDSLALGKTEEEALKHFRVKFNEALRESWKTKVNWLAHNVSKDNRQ
PI3Kδ, sequence (P27986 whole entry partner): as the sequence (P27986 whole entry partner, canonical isoform) above

Row | Structure (SMILES) | Ki ([1]; Table 2A) [nM] | Selectivity for PI3Kα vs. PI3K-β [1, 15] | Selectivity for PI3Kα vs. PI3Kγ [1, 15] | Selectivity for PI3Kα vs. PI3Kδ [1, 15] | EC50 ([2]; Table 3A, geometric mean) [nM] | Fold Selectivity for SW48(E545K) vs. SW48(parental) ([2]; Table 3A) | EC50 [3, 16] [µM] | EC50 [4, 17] [µM] | Tolerability / treatment-related body weight loss [5] | Inhibition of KPL4 tumor growth in vivo [5] | EC50 [6, 18] [nM] | Ki [7] [nM] | EC50 [8, 19] [µM] | EC50 ([9]; Table 3A, geometric mean) [nM] | Fold Selectivity for SW48(H1047R) vs. SW48(parental) ([9]; Table 3A) | Ki [10] [nM] | Ki [11] [nM] | EC50 [3, 20] [µM] | EC50 [4, 21] [µM] | EC50 [8, 22] [µM] | further results
1 | C[C@@H]1COC(=O)N1c1cn2c(n1)-c1ccc(N3CCC[C@H]3C(N)=O)cc1OCC2 [Compound 102, (S)-1-(2-((R)-4-Methyl-2-oxooxazolidin-3-yl)-5,6-dihydrobenzo[f]imidazo[1,2-d][1,4]oxazepin-9-yl)pyrrolidine-2-carboxamide] | 0.56 | 745 | 366 | 24 | 16.6 | 2.4 (p < 0.001) | 0.1 | 0.05 | well tolerated, with no treatment-related body weight loss observed | strongly inhibit the growth of KPL4 tumors in vivo in a dose-dependent manner | 39.2 | 418 | 0.48 | 16.4 | 2.4 (p < 0.001) | 205 | 13.3 |  |  |  | 
2 | NC(=O)[C@@H]1CCCN1c1ccc2c(c1)OCCn1cc(N3C(=O)OC[C@H]3C(F)(F)F)nc1-2 [Compound 103, (S)-1-(2-((S)-2-Oxo-4-(trifluoromethyl)oxazolidin-3-yl)-5,6-dihydrobenzo[f]imidazo[1,2-d][1,4]oxazepin-9-yl)pyrrolidine-2-carboxamide] | 0.155 | 698 | 290 | 15 | 6.9 | 2.7 (p = 0.002) | 0.38 | 0.02 | well tolerated, with no treatment-related body weight loss observed | strongly inhibit the growth of KPL4 tumors in vivo in a dose-dependent manner | 18.7 | 108 | 0.15 | 7.1 | 2.6 (p = 0.002) | 45 | 2.28 |  |  |  | 
3 | C[C@H](Oc1ccc2c(c1)OCCn1cc(N3C(=O)OC[C@H]3C(F)(F)F)nc1-2)C(N)=O [Compound 105, (S)-2-((2-((S)-2-Oxo-4-(trifluoromethyl)oxazolidin-3-yl)-5,6-dihydrobenzo[f]imidazo[1,2-d][1,4]oxazepin-9-yl)oxy)propanamide] | 2.75 |  |  |  | 62.9 | 3.2 (p = 0.012) | 0.05 | 0.008 |  |  | 199 | 661 | 0.005 | 53.6 | 3.7 (p = 0.008) | 255 | 42.2 |  |  |  | Selectivity for PI3Kα vs. PI3K-β [1]: 241; Selectivity for PI3Kα vs. PI3Kγ [1]: 93; Selectivity for PI3Kα vs. PI3Kδ [1]: 15
4 | CS(=O)(=O)N1CCN(Cc2cc3nc(-c4cccc5[nH]ncc45)nc(N4CCOCC4)c3s2)CC1 [pictilisib, 4-(2-(1H-indazol-4-yl)-6-((4-(methylsulfonyl)piperazin-1-yl)methyl)thieno[3,2-d]pyrimidin-4-yl)morpholine, reference compound] |  |  |  |  |  |  |  |  |  |  |  |  |  |  |  |  |  | 0.12 | 0.21 | 0.75 | 
5 | Cc1nc(-c2cn3c(n2)-c2ccc(-c4cnn(C(C)(C)C(N)=O)c4)cc2OCC3)n(C(C)C)n1 [taselisib, 2-(4-(2-(1-isopropyl-3-methyl-1H-1,2,4-triazol-5-yl)-5,6-dihydrobenzo[f]imidazo[1,2-d][1,4]oxazepin-9-yl)-1H-pyrazol-1-yl)-2-methylpropanamide, reference compound] |  |  |  |  |  |  |  |  |  |  |  | 53 |  |  |  |  |  | 0.02 | 0.02 | 0.04 | Partial responses (PRs) in enrolled patients [12]: 6/34; EC50 ([2]; Table 3B comparator compounds): 3.4 nM; EC50 ([6]; read-out: P-PRAS40 SW48(parental) EC50 (μM)): 7.9 nM; EC50 ([9]; Table 3B comparator compounds): 4 nM; Ki [13]: 0.97 nM; Ki [14]: 9.1 nM
